Reference: US11253457B2, “Exopolysaccharide-protein complex, a method of preparing said complex and uses thereof” (INSTITUT UNIV. DE CIÈNCIA I TECNOLOGIA, S.A., priority 2016, dated 2022)
pIC50: −log10 of the molar value.

Assays:
[1] = system: human hepatocellular carcinoma cell line (HepG2); assay: MTT tumor cell proliferation assay (HepG2); format: cell-based; settings: HepG2, positive control
Procedure: The MTT assay was used for measuring the proliferation of the tumor cells. Briefly, human hepatocellular carcinoma cell line (HepG2), human breast adenocarcinoma cell line (MCF7), human lung adenocarcinoma cell line (H1975) and Human melanoma cell line (A375) were seeded at a density of 4×10^4 cells/mL in a volume of 0.1 mL in 96-well plates, respectively. After 24 h, different concentrations of EPCx (1.0, 0.1 and 0.01 mg/ml) were dissolved in the medium was added to each well and incubated for 48 h at 37° C. in a CO2 incubator. 5-Fu (5-fluorouracil) was used as the positive control. After the incubation, 20 μL of MTT solution (5 mg/mL) were added into each well and followed by further incubation for 4-5 h. The culture media were then removed and 100 μL of DMSO was added to each well for 1 h. Absorbance at 570 nm was detected by microplate ELISA reader.

IL-6 [2] = assay: Real-time PCR of IL-6 mRNA in THP-1 cells stressed with LPS; format: cell-based; settings: human monocyte-like cells (THP-1), LPS 10 μg/ml alone
Procedure: (§1) The capacity of EPS to modulate the inflammatory response was evaluated in vitro in human primary keratinocytes (HEK) and human monocyte-like cells (THP-1) stressed with LPS (lipopolysaccharide). The cells were pretreated with different concentrations of exopolysaccharide-protein complex (1, 0.1 and 0.01 mg/ml) for 24 h and with 10 μg/ml of LPS for 24 h. Controls of HEK and THP-1 cells treated only with the different concentrations of exopolysaccharide-protein complex (1.0, 0.1 and 0.01 mg/ml) were also prepared.
(§2) Expression of mRNA for the cytokines IL-6, IL-8, IL-10 and TNF-α was analyzed by real-time PCR and the NF-κB activation was measured using a luciferase reporter gene assay.
(§3) Real-time PCR: Total RNA was extracted with the RNA Isolation Kit (ThermoFischer Scientific) according to the manufacturer's recommendations. 1 ng of RNA was reverse transcribed into complementary DNA (cDNA) using Superscript One-Step RT-PCR kit with platinum Taq according to the instructions (Invitrogen). Quantification rests on the measure of threshold cycles (CT), which are measured at the beginning of the exponential phase of the reaction and on the normalization of the internal standard curve obtained with the reference gene.

IL-10 [3] = assay: Real-time PCR of IL-10 mRNA in keratinocytes stressed with LPS; format: cell-based, human; settings: LPS 10 μg/ml alone
Procedure: as §1, §2, §3

IL-6 [4] = assay: Real-time PCR of IL-6 mRNA in keratinocytes stressed with LPS; format: cell-based, human; settings: LPS 10 μg/ml alone
Procedure: as §1, §2, §3

IL-10 [5] = assay: Real-time PCR of IL-10 mRNA in THP-1 cells stressed with LPS; format: cell-based; settings: human monocyte-like cells (THP-1), LPS 10 μg/ml alone
Procedure: as §1, §2, §3

IL-8 [6] = assay: Real-time PCR of IL-8 mRNA in THP-1 cells stressed with LPS; format: cell-based; settings: human monocyte-like cells (THP-1), LPS 10 μg/ml alone
Procedure: as §1, §2, §3

TNF-α [7] = assay: Real-time PCR of TNF-α mRNA in keratinocytes stressed with LPS; format: cell-based, human; settings: LPS 10 μg/ml alone
Procedure: as §1, §2, §3

IL-8 [8] = assay: Real-time PCR of IL-8 mRNA in keratinocytes stressed with LPS; format: cell-based, human; settings: LPS 10 μg/ml alone
Procedure: as §1, §2, §3

TNF-α [9] = assay: Real-time PCR of TNF-α mRNA in THP-1 cells stressed with LPS; format: cell-based; settings: human monocyte-like cells (THP-1), LPS 10 μg/ml alone
Procedure: as §1, §2, §3

With `O=c1[nH]cc(F)c(=O)[nH]1` [5-fluorouracil] the pIC50 [1] was 5.00.
With lipopolysaccharide [LPS] the “Gene expression (mRNA, real-time PCR) IL-6” value (IL-6 [2]) was 73, the “Gene expression (mRNA, real-time PCR) IL-10” value (IL-10 [3]) was 7 and the “Gene expression (mRNA, real-time PCR) IL-6” value (IL-6 [4]) was 62. For the same compound, the “Gene expression (mRNA, real-time PCR) IL-10” value (IL-10 [5]) was 5, the “Gene expression (mRNA, real-time PCR) IL-8” value (IL-8 [6]) was 82 and the “Gene expression (mRNA, real-time PCR) TNF-α” value (TNF-α [7]) was 67. For the same compound, the “Gene expression (mRNA, real-time PCR) IL-8” value (IL-8 [8]) was 59 and the “Gene expression (mRNA, real-time PCR) TNF-α” value (TNF-α [9]) was 67.
